Source: ChEMBL document CHEMBL4483862, “Open-source discovery of chemical leads for next-generation chemoprotective antimalarials” (2018)

System: Plasmodium berghei
Assay: Luciferase/luciferin-expressing antifolate-resistant parasites were used to infect a culture of HepG2 cells that were pre-incubated with compounds. Infected hepatocytes emit light due to the luciferase reaction. Assay results are presented as the percent inhibition of light emission compared to control. […]
Assay type: functional
Conditions: sporozoite; for IC90: read-out: LUCIFERASE INFECTION ASSAY - IC90

## COc1ccccc1N1C(C)=CC(=C(C#N)c2nc3ccccc3s2)C=C1C
FFLUC_HILL_SLOPE 10.1, FFLUC_R_SQUARED 0.663, HEPG2TOX_HILL_SLOPE 9.46, HEPG2TOX_R_SQUARED 0.504, PBLUC_HILL_SLOPE 1.94, PBLUC_R_SQUARED 0.582, read-out: LUCIFERASE INFECTION ASSAY - IC50
  IC50: 3.83 µM
  IC90: > 10 µM

## C=CCn1c(SCc2cn3c(C)cccc3n2)nc2sc(C)c(C)c2c1=O
FFLUC_HILL_SLOPE 10.3, FFLUC_R_SQUARED 0.131, HEPG2TOX_HILL_SLOPE 7.8, HEPG2TOX_R_SQUARED 0.483, read-out: LUCIFERASE INFECTION ASSAY - IC50
  IC50: > 10 µM
  IC90: > 10 µM

## COc1cc(/C=C2\C(=O)c3ccccc3S(=O)(=O)N2C(C)C)ccc1O
FFLUC_HILL_SLOPE 10, FFLUC_R_SQUARED 0.0898, HEPG2TOX_HILL_SLOPE 4.33, HEPG2TOX_R_SQUARED 0.977, PBLUC_HILL_SLOPE 2.02, PBLUC_R_SQUARED 0.77, read-out: LUCIFERASE INFECTION ASSAY - IC50
  IC50: 0.957 µM
  IC90: 2.85 µM

## Cc1ccc(-n2c(C)cc(C(=O)CN(c3ccccc3)S(=O)(=O)c3ccc(F)cc3)c2C)cc1C
FFLUC_HILL_SLOPE 9.87, FFLUC_R_SQUARED 0.464, read-out: LUCIFERASE INFECTION ASSAY - IC50
  IC50: > 10 µM
  IC90: > 10 µM

## CCCCCCCCCCCc1nnc(SCc2ccc(Cl)cc2)n1-c1ccccc1C(F)(F)F
FFLUC_HILL_SLOPE 9.94, FFLUC_R_SQUARED 0.653, read-out: LUCIFERASE INFECTION ASSAY - IC50
  IC50: > 6.3 µM
  IC90: > 6.3 µM

## C=CCn1c(SCC(=O)Nc2sc(C)c(C)c2C(=O)OCC)nc2scc(-c3ccc(OC)cc3)c2c1=O
FFLUC_HILL_SLOPE 9.8, FFLUC_R_SQUARED 0.347, HEPG2TOX_HILL_SLOPE 0.0825, HEPG2TOX_R_SQUARED 0.0539, PBLUC_HILL_SLOPE 3.18, PBLUC_R_SQUARED 0.293, read-out: LUCIFERASE INFECTION ASSAY - IC50
  IC50: 5.66 µM
  IC90: > 10 µM

## C=CCn1c2ccccc2c2ccccc21
FFLUC_HILL_SLOPE 10.4, FFLUC_R_SQUARED 0.117, read-out: LUCIFERASE INFECTION ASSAY - IC50
  IC50: > 15.9 µM
  IC90: > 15.9 µM

## Brc1cnc(N2CCN(C(c3ccccc3)(c3ccccc3)c3ccccc3)CC2)nc1
FFLUC_HILL_SLOPE 9.83, FFLUC_R_SQUARED 0.0243, read-out: LUCIFERASE INFECTION ASSAY - IC50
  IC50: > 6.8 µM
  IC90: > 6.8 µM

## COc1cc(Cl)c(C)cc1-n1c(SCc2nnc(-c3cccs3)o2)nc2ccccc2c1=O
FFLUC_HILL_SLOPE 9.81, FFLUC_R_SQUARED 0.743, PBLUC_HILL_SLOPE 8.4, PBLUC_R_SQUARED 0.579, read-out: LUCIFERASE INFECTION ASSAY - IC50
  IC50: 8.6 µM
  IC90: > 10 µM

## Cc1ccc(-c2nc(SCc3nc(=O)c4c(-c5ccccc5)csc4[nH]3)[nH]c2-c2ccc(C)cc2)cc1
FFLUC_HILL_SLOPE 10.3, FFLUC_R_SQUARED 0.755, read-out: LUCIFERASE INFECTION ASSAY - IC50
  IC50: > 10 µM
  IC90: > 10 µM

## O=C(COc1ccc2[nH]c3ccccc3c(=O)c2c1)N1c2ccccc2OCC1c1ccccc1 (configuration not stated)
FFLUC_HILL_SLOPE 10.4, FFLUC_R_SQUARED 0.204, PBLUC_HILL_SLOPE 2.2, PBLUC_R_SQUARED 0.922, read-out: LUCIFERASE INFECTION ASSAY - IC50
  IC50: 0.0152 µM
  IC90: 0.0412 µM

## Cc1cc(C)c2nc(N(Cc3ccccc3)C(=O)c3nc(S(C)(=O)=O)ncc3Cl)sc2c1
FFLUC_HILL_SLOPE 9.88, FFLUC_R_SQUARED 0.449, HEPG2TOX_HILL_SLOPE 6.61, HEPG2TOX_R_SQUARED 0.275, PBLUC_HILL_SLOPE 4.15, PBLUC_R_SQUARED 0.619, read-out: LUCIFERASE INFECTION ASSAY - IC50
  IC50: 6.34 µM
  IC90: > 10 µM

## CC(NC(=O)c1ccccc1NC(=O)CSc1ccc2c3c(cccc13)CC2)c1ccccc1 (configuration not stated)
FFLUC_HILL_SLOPE 9.73, FFLUC_R_SQUARED 0.624, HEPG2TOX_HILL_SLOPE 6.39, HEPG2TOX_R_SQUARED 0.223, read-out: LUCIFERASE INFECTION ASSAY - IC50
  IC50: > 10 µM
  IC90: > 10 µM

## O=C1Nc2ccc([N+](=O)[O-])cc2C1=C(c1nc2ccccc2s1)c1nc2ccccc2s1
FFLUC_HILL_SLOPE 9.66, FFLUC_R_SQUARED 0.665, read-out: LUCIFERASE INFECTION ASSAY - IC50
  IC50: > 10 µM
  IC90: > 10 µM

## CCn1c2ccccc2c2cc(NC(=O)C(C)OC(=O)C3C(C(=O)OC)=C(C)NC(C)=C3C(=O)OC)ccc21 (configuration not stated)
FFLUC_HILL_SLOPE 9.58, FFLUC_R_SQUARED 0.157, read-out: LUCIFERASE INFECTION ASSAY - IC50
  IC50: > 10 µM
  IC90: > 10 µM

## O=C(COc1ccc([N+](=O)[O-])c2cccnc12)Nc1ccc(C(F)(F)F)cc1
FFLUC_HILL_SLOPE 10, FFLUC_R_SQUARED 0.0627, PBLUC_HILL_SLOPE 68.1, PBLUC_R_SQUARED 0.146, read-out: LUCIFERASE INFECTION ASSAY - IC50
  IC50: 9.89 µM
  IC90: > 10 µM

## O=C1Nc2ccc(Cl)cc2/C1=C/c1nn(Cc2ccccc2)cc1-c1cccnc1
FFLUC_HILL_SLOPE 9.69, FFLUC_R_SQUARED 0.424, PBLUC_HILL_SLOPE 9.27, PBLUC_R_SQUARED 0.306, read-out: LUCIFERASE INFECTION ASSAY - IC50
  IC50: 8.59 µM
  IC90: > 10 µM

## CCOC(=O)c1c(N)sc(Cc2sc(N)c(C(=O)OCC)c2-c2ccccc2)c1-c1ccccc1
FFLUC_HILL_SLOPE 10.1, FFLUC_R_SQUARED 0.631, HEPG2TOX_HILL_SLOPE 3.62, HEPG2TOX_R_SQUARED 0.944, PBLUC_HILL_SLOPE 88.7, PBLUC_R_SQUARED 0.482, read-out: LUCIFERASE INFECTION ASSAY - IC50
  IC50: 5.77 µM
  IC90: 5.92 µM

## O=S(=O)(Nc1ccc(Cl)cc1)c1cc(NC(=S)Nc2ccc(Oc3ccccc3)cc2)ccc1N1CCCCC1
FFLUC_HILL_SLOPE 10.3, FFLUC_R_SQUARED 0.0303, PBLUC_HILL_SLOPE 13.4, PBLUC_R_SQUARED 0.215, read-out: LUCIFERASE INFECTION ASSAY - IC50
  IC50: > 10 µM
  IC90: > 10 µM

## CC(C)N(C(=O)CSC1=NC(c2ccccc2)C2=C(N1)/C(=C/c1ccccc1)CCC2)c1ccccc1 (configuration not stated)
FFLUC_HILL_SLOPE 9.66, FFLUC_R_SQUARED 0.711, HEPG2TOX_HILL_SLOPE 8.12, HEPG2TOX_R_SQUARED 0.779, PBLUC_HILL_SLOPE 2.67, PBLUC_R_SQUARED 0.724, read-out: LUCIFERASE INFECTION ASSAY - IC50
  IC50: 4.12 µM
  IC90: 9.39 µM

## CCN(CCO)c1ccc(NC2=C(NC(C)=O)C(=O)c3ccccc3C2=O)cc1
FFLUC_HILL_SLOPE 10.4, FFLUC_R_SQUARED 0.141, HEPG2TOX_HILL_SLOPE 0.681, HEPG2TOX_R_SQUARED 0.905, PBLUC_HILL_SLOPE 1.27, PBLUC_R_SQUARED 0.687, read-out: LUCIFERASE INFECTION ASSAY - IC50
  IC50: 2.16 µM
  IC90: > 10 µM

## CC(OC(=O)c1cc2ccccc2cc1O)C(=O)Nc1cccc(S(=O)(=O)N2CCOCC2)c1 (configuration not stated)
FFLUC_HILL_SLOPE 10.4, FFLUC_R_SQUARED 0.221, read-out: LUCIFERASE INFECTION ASSAY - IC50
  IC50: > 10 µM
  IC90: > 10 µM

## CS(=O)(=O)C(C#N)=Cc1ccccc1OCc1c(Cl)cccc1Cl
FFLUC_HILL_SLOPE 9.87, FFLUC_R_SQUARED 0.717, read-out: LUCIFERASE INFECTION ASSAY - IC50
  IC50: > 8.63 µM
  IC90: > 8.63 µM

## FC(F)(F)c1cc(Nc2ncnc3sc(-c4ccccc4)cc23)ccc1Cl
FFLUC_HILL_SLOPE 9.86, FFLUC_R_SQUARED 0.42, HEPG2TOX_HILL_SLOPE 7.8, HEPG2TOX_R_SQUARED 0.241, read-out: LUCIFERASE INFECTION ASSAY - IC50
  IC50: > 10 µM
  IC90: > 10 µM

## CCc1sc2nc(SCC(=O)NC(C)(C#N)C(C)C)n(Cc3ccc(C)cc3)c(=O)c2c1C (configuration not stated)
FFLUC_HILL_SLOPE 10, FFLUC_R_SQUARED 0.698, read-out: LUCIFERASE INFECTION ASSAY - IC50
  IC50: > 10 µM
  IC90: > 10 µM

## CCOC(=O)c1sc(SC)c2c1CCc1c[nH]nc1-2
FFLUC_HILL_SLOPE 10.3, FFLUC_R_SQUARED 0.371, read-out: LUCIFERASE INFECTION ASSAY - IC50
  IC50: > 11.2 µM
  IC90: > 11.2 µM

## O=C(NCc1ccccc1)C1=CN2CCN(Cc3cccc(Cl)c3)C(=O)N=C2O1
FFLUC_HILL_SLOPE 9.9, FFLUC_R_SQUARED 0.0641, read-out: LUCIFERASE INFECTION ASSAY - IC50
  IC50: > 10 µM
  IC90: > 10 µM

## COc1cc(-c2cnc3cnc(-c4ccccc4C)cn23)ccc1O
FFLUC_HILL_SLOPE 9.6, FFLUC_R_SQUARED 0.0922, HEPG2TOX_HILL_SLOPE 3.65, HEPG2TOX_R_SQUARED 0.847, PBLUC_HILL_SLOPE 7.45, PBLUC_R_SQUARED 0.397, read-out: LUCIFERASE INFECTION ASSAY - IC50
  IC50: 3.96 µM
  IC90: 5.32 µM

## CC(C)Cc1ccc(C(=O)CC(Sc2ccccc2N)c2ccc(C(F)(F)F)cc2)cc1 (configuration not stated)
FFLUC_HILL_SLOPE 10.1, FFLUC_R_SQUARED 0.429, PBLUC_HILL_SLOPE 1.99, PBLUC_R_SQUARED 0.752, read-out: LUCIFERASE INFECTION ASSAY - IC50
  IC50: 0.15 µM
  IC90: 0.452 µM

## Cc1cc2[nH]c(C)cc(=O)n2n1
FFLUC_HILL_SLOPE 10.3, FFLUC_R_SQUARED 0.148, read-out: LUCIFERASE INFECTION ASSAY - IC50
  IC50: > 20.2 µM
  IC90: > 20.2 µM

## CCCCNC(=O)c1c(NC(=O)c2cc(F)cc(F)c2)nc2ccccn12
FFLUC_HILL_SLOPE 9.87, FFLUC_R_SQUARED 0.392, HEPG2TOX_HILL_SLOPE 0.611, HEPG2TOX_R_SQUARED 0.894, PBLUC_HILL_SLOPE 4.02, PBLUC_R_SQUARED 0.616, read-out: LUCIFERASE INFECTION ASSAY - IC50
  IC50: 0.679 µM
  IC90: 1.17 µM
